Experimental data from patent US10670566B2, “Rapid antimicrobial susceptibility testing using piezoelectric sensor” (Drexel University, priority 2015, dated 2020).
≈ marks a conversion by molar mass, not a printed value.

Key:
E. coli [1] = conditions: known MIC for the E. coli strain tested; cited from earlier work
[2] = pH of ampicillin solution measured using pH paper; assay type: physicochemical; conditions: 1 mg/ml
E. coli [3] = test: Antimicrobial susceptibility testing using PZT piezoelectric plate sensor (width mode resonance peak); assay type: cell-based
Method: After the PZT sensor was insulated with MPS and coated with APS, it was immersed in 5 ml of DI water to monitor the stability of width mode frequency peak for more than 30 min. If the peak was symmetric and stable, the sensor could be used for the antimicrobial testing.
E. coli suspension in broth was prepared. The concentration was about 10^9 cells/mi. The following procedure was used to replace the broth with DI water, since the ions in the broth might affect the spectrum of the sensor. The suspension was centrifuged at 3000 rpm/min for 5 min and the supernatant was removed. 5 mL of DI water was then added to the tube and the E. coli was re-suspended in DI water.
For the first a few tests (Tests 1-3), a drop of E. coli suspension (20 μl) was put on the sensor surface. After 10 min, the sensor was washed with 400 ml of DI water in a glass beaker 3 times to remove the unbound bacteria. The sensor was then returned to 5 ml of DI water and its width mode peak was monitored. In Test 4, instead of putting a drop of suspension on the sensor, the sensor was soaked in the E. coli suspension for 10 min. The washing step for Test 4 was the same as mentioned above.
After the sensor with E. coli was monitored for 5-10 min, various amounts of ampicillin were added to the DI water every 5 min to determine whether the antibiotics would have an effect on the frequency peak. For Test 1, 1 mg/ml ampicillin solution was made. Different volumes of the ampicillin solution ([…]) were added to the 5 ml of DI water to make the final concentrations of the ampicillin 1, 2, 4, 8, 16, and 32 μg/ml. In Tests 2-4 20 μl of ampicillin solutions of different concentrations (0.25, 0.25, 0.5, 1, 2, and 4 mg/ml) were added each time to make the final concentration of the ampicillin to 1, 2, 4, 8, 16, and 32 μg/ml.
To characterize the roundness of the peak shape, the raw data was smoothed first (as shown in FIG. 15. The amount of variation of the raw data from the smoothed data was calculated as the standard deviation (SD) of the raw data. The width of the top of the peak could be found when the phase angle was 1 times SD (or 2 times SD) smaller than the maximum phase angle in smoothed data. The more round the peak was, the smaller the width of the top of the peak would be. On the other hand, the more flat the peak was, the larger the width of the top of the top of the peak would be.

In the case of `CC1(C)S[C@@H]2[C@H](NC(=O)[C@H](N)c3ccccc3)C(=O)N2[C@H]1C(=O)O` [ampicillin], the “minimal inhibitory concentration (MIC)” value (E. coli [1]) is listed as 8 mg/L (≈ 22.9 µM), the “pH value of the ampicillin solution” value [2] is listed as 3 and the “change of SD of peak frequency after adding ampicillin, compared to the SD with E. coli” value (E. coli [3]; Test 1) is listed as “decreased a lot”. The “ampicillin concentration at which the SD of the peak frequency reached its minimal point” value (E. coli [3]; Test 1 (results similar in Tests 2 and 3), E. coli on sensor in DI water, ampicillin 1-32 μg/ml added every 5 min) was 8 µg/mL, the “change of width of the top of the peak after adding ampicillin” value (E. coli [3]; Test 4, different sensor, pH adjusted ampicillin, sensor soaked in E. coli suspension) was “decreased” and the “change of width of the top of the peak after adding ampicillin” value (E. coli [3]; Tests 1-3) was “started to decrease”.
